Data taken from publication PMC8880039, “Kinetic and Molecular Docking Studies to Determine the Effect of Inhibitors on the Activity and Structure of Fused G6PD::6PGL Protein from Trichomonas vaginalis” (Molecules, 2022).

How the values were obtained:
Format in all cases: biochemical
[1] = target: T1, fused TvG6PD::6PGL enzyme (Trichomonas vaginalis, UniProt A2EC78); experiment: Orthogonal assay: IC50 by residual activity of TvG6PD::6PGL
Procedure: Figure 2 Inactivation of the TvG6PD::6PGL enzyme with CNZ-3, MCC-7, JMM-3, and CNZ-17. The protein was adjusted at 0.2 mg/mL and incubated with increasing concentrations of each compound (0–800 μM) for 2 h at 37 °C. The IC50 values were determined by plotting the residual activity of the fused TvG6PD::6PGL enzyme versus compound concentrations. The assays were carried out in triplicate, and the data represent the mean ± standard error.
The compound concentration at which the enzyme loses 50% of its initial activity (IC50) was determined according to Hernández-Ochoa et al.. The G6PD::6PGL protein was adjusted to a 0.2 mg/mL concentration and incubated for 2 h at 37 °C, with increasing concentrations from 0 to 800 µM of the selected synthetic hit compounds. Then, the residual activity was measured, as mentioned above.

[2] = target: T1, fused TvG6PD::6PGL enzyme; experiment: Time-course inactivation, second-order rate constant (k2); conditions: read-out: second-order rate constant of inactivation (k2)
Procedure: To determine the enzyme–inhibitor complex formation rate for each synthetic compound, we first calculated the pseudo-first-order inactivation constants (k1) by measuring the initial velocities at five fixed concentrations, at intervals between 0 and 120 min. […] We observed single-exponential decays of time-course inactivation for all the compounds examined in this study (Figure 3A,C,E,G). Additionally, as the synthetic compounds’ concentrations increased, the enzyme lost catalytic activity in a shorter incubation time; in contrast, the enzymatic activity of enzymes without compounds remained intact. The k1 values for each compound were calculated and plotted against their concentrations, and a linear behavior was obtained and fitted with the linear equation (Figure 3B,D,F,H). The calculated k2 values for JMM-3, CNZ-3, CNZ-17, and MCC-7 were: 0.33, 0.66, 0.38, and 0.26 M^−1 s^−1, respectively. It is important to mention that CNZ-3 formed the enzyme–inhibitor complex faster (k2 value of 0.66 M^−1 s^−1), regarding the CNZ-17 compound. This difference in the affinity to form the enzyme–inhibitor complex may be due to the p-chlorine moiety present in CNZ-3, unlike CNZ-17, which has a methoxy group in the same position.
Figure 3 Inactivation of fused G6PD::6PGL enzyme by chemical compounds. […] We obtained second-order rate constant values of inactivation (k2) of each of (B) JMM-3, (D) CNZ-3, (F) CNZ-17, and (H) CCM-7 by fitting the calculated k1 value versus the concentration of the compound. […] TEXT PRINTED IN THE PICTURE: (B) JMM-3: k2= 0.33 (M^-1* s^-1) | (D) CNZ-3: k2 = 0.66 (M^-1* s^-1) | (F) CNZ-17: k2 = 0.38 (M^-1* s^-1) | (H) MCC-7: k2 = 0.26 (M^-1* s^-1) DOUBTS OF THE COPYIST ABOUT THIS PICTURE: CNZ-3, k2: small print, 0.66 could be 0.68 or 0.86 / CNZ-17, k2: small print, 0.38 could be 0.36 or 0.88 / MCC-7, k2: small print, 0.26 could be 0.28; subscript of k not clearly readable / Panels D, F, H: the sign between M^-1 and s^-1 (asterisk) is not clearly readable
Second-order rate constants of inactivation (k2) were used to determine the inactivation rate of a chemical compound and the formation of the enzyme–inhibitor complex. Therefore, pseudo-first-order rate constants (k1) were determined for the recombinant G6PD::6PGL, adjusted at 0.2 mg/mL, and incubated with four different fixed concentrations of each compound at 37 °C. At the indicated times, a sample was withdrawn, and the residual activity was measured. First, we calculated the pseudo-first-order rate constants (k1) by fitting the residual activities data using a monoexponential decay equation: AR=A0 e^−kt , where AR is the residual activity at time t, A0 is the activity at the initial time, and k is the pseudo-first-order inactivation constant (min^−1). […]

[3] = target: T1, fused TvG6PD::6PGL enzyme; experiment: Screening of in-house library for inhibition of fused TvG6PD::6PGL catalytic activity; conditions: read-out: G6PD::6PGL Inhibition (%), compound 400 μM, 0.2 mg/mL enzyme, 2 h at 37 °C
From the text: (§1) Here, we tested an in-house library of 55 compounds with some structural similarity to the previously reported molecules by Preuss et al.. […] In addition, we tested these synthetic compounds as potential recombinant human G6PD (HsG6PD) protein inhibitors. We observed that synthetic compounds, such as JMM-2, CNZ-3, CNZ-7, and CNZ-8, inhibited the fused TvG6PD::6PGL and the HsG6PD enzymes. For example, JMM-2 inhibited both enzymes by 81%, and CNZ-3 inhibited their catalytic activity by around 90%. Conversely, six of them, JMM-3, CNZ-16, CNZ-17, MCC-7, CMC-1, and TDA-5, inhibited the fused TvG6PD::6PGL enzyme activity in a more significant proportion regarding HsG6PD. […] The selective inhibition over the fused TvG6PD::6PGL enzyme may help improve the rational design of new drugs against this parasite without affecting the activity of HsG6PD.
We tested an in-house library of 55 chemical compounds synthesized in the Medicinal Chemistry Laboratory from Facultad de Farmacia, Universidad Autónoma del Estado de Morelos. In-house libraries are advantageous in the discovery of novel bioactive small molecules. […] Subsequently, the residual activity was measured using a standard reaction mixture (1 mM G6P, 0.2 mM NADP^+, 0.1 mM Tris-HCl, and one mM MgCl2, pH 8.0). […]

[4] = target: T1, fused TvG6PD::6PGL enzyme; experiment: Determination of inhibition type (double reciprocal plots); conditions: Lineweaver–Burk; for inhibition type for G6P substrate: G6P varied, NADP+ saturating; for inhibition type for NADP+ substrate: NADP+ varied, G6P saturating
From the text: Figure 4 Determination of inhibition type of selected compounds. Lineweaver–Burk plots for the JMM-3, CNZ-3, CNZ-17, and MCC-7 compounds with G6P (A,C,E,G) or NADP^+ (B,D,F,H) substrates. The data represent the mean ± of three independent experiments, and standard errors were lower than 5%. […] Only the inhibition type (a class) is printed as a plot label, and it is uncertain whether that counts as a result. The concentrations in the plot legends stand alone and were left out.
To determine the inhibition mechanism of the four selected hit compounds over the T. vaginalis-fused G6PD::6PGL protein, we monitored the initial velocities in the presence of two fixed concentrations of each of the inhibitory compounds. The initial velocities were determined at different substrate concentrations (from 0 to 140 µM). […] Subsequently, the initial velocities for each physiological substrate (G6P and NADP^+) were analyzed using the double reciprocal plot method.

[5] = target: recombinant human G6PD (HsG6PD) (Homo sapiens, UniProt P11413); experiment: Inhibition of recombinant human G6PD by the selected compounds; conditions: compound 400 μM
From the text: as §1

recombinant human G6PD (HsG6PD), sequence (P11413 whole entry): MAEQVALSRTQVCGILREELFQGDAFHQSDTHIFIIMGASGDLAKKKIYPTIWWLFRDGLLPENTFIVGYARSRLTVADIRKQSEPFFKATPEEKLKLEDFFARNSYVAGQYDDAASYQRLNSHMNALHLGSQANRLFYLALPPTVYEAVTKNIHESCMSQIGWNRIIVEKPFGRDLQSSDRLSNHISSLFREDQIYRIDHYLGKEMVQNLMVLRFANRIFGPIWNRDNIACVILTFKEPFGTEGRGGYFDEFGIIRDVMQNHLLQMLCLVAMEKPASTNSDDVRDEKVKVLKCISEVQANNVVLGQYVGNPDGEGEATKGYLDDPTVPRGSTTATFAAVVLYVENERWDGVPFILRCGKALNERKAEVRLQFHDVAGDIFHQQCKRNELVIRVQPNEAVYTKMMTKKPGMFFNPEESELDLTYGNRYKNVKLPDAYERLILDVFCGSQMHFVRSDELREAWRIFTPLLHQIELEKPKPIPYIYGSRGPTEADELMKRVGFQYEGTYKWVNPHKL
T1 sequence (A2EC78 entry or part of it): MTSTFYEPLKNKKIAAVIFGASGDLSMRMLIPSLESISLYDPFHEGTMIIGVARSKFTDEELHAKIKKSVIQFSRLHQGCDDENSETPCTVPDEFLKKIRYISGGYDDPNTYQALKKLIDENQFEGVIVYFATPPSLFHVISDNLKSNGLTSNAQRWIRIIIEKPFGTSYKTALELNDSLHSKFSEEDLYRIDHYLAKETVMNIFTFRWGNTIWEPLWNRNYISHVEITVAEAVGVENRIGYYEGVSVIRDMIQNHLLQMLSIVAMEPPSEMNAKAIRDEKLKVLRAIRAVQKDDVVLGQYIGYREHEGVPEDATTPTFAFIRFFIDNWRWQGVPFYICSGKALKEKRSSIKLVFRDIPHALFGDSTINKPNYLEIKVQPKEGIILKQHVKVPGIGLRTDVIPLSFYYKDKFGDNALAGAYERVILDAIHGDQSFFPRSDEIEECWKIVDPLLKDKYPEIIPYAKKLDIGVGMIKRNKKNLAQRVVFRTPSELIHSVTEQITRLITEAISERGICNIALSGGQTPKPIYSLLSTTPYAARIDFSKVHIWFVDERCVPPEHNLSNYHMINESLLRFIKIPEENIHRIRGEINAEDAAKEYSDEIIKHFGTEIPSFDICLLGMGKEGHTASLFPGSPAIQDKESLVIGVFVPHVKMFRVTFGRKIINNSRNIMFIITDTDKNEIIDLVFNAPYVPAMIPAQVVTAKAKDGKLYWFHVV

| SMILES | IC50 [1] | kinact/KI [2] | inhibition at 400 µM [3] | inhibition type for G6P substrate [4] | inhibition type for NADP+ substrate [4] | inhibition at 400 µM [5] |
| --- | --- | --- | --- | --- | --- | --- |
| COc1cc(CCC(=O)O)ccc1OCc1ccc(-c2ccccc2C#N)cc1 [JMM-3] | 155 µM | 0.33 M⁻¹ s⁻¹ | > 50% | uncompetitive-type inhibition | uncompetitive-type inhibition |  |
| O=C(COc1ccc(/C=C2\SC(=O)NC2=O)cc1)NC1CCN(Cc2ccccc2)CC1 [MCC-7] | 260 µM | 0.26 M⁻¹ s⁻¹ |  | non-competitive-type inhibition | uncompetitive type | 11% |
| COc1ccc(NC(=O)Nc2ncc([N+](=O)[O-])s2)cc1 [CNZ-17] | 356 µM | 0.38 M⁻¹ s⁻¹ | > 50% | uncompetitive-type inhibition | uncompetitive-type inhibition | 0% |
| O=C(Nc1ccc(Cl)cc1)Nc1ncc([N+](=O)[O-])s1 [CNZ-3] | 93 µM | 0.66 M⁻¹ s⁻¹ |  | noncompetitive-type inhibition | competitive-type inhibition | ~90% |
